Experimental data: ChEMBL document CHEMBL1137521, “In vivo growth inhibitory and anti-angiogenic effects of synthetic novel dienone cyclopropoxy curcumin analogs on mouse Ehrlich ascites tumor” (2007)
The source made the active and inactive calls. No cut-off for these calls is given here.

Key:
[1] = tested on: Mus musculus; experiment: Antiangiogenic effect in Swiss Albino mouse bearing EAT cells assessed as inhibition of blood vessel formation in at 100 mg/kg, ip; format: functional; details: route intraperitoneal
[2] = tested on: Mus musculus; experiment: Growth inhibition of Swiss Albino mouse bearing EAT cells assessed as increase in life span at 100 mg/kg, ip administered on day 9 after tumor inoculation; format: functional; set-up: scale not given: the % may be the effect or the level left; details: route intraperitoneal
[3] = tested on: Mus musculus; experiment: Growth inhibition of Swiss Albino mouse bearing EAT cells assessed as increase in median survival time at 100 mg/kg, ip; format: functional; details: route intraperitoneal
[4] = tested on: Mus musculus; experiment: Growth inhibition of Swiss Albino mouse bearing EAT cells assessed as decrease in ascites volume at 100 mg/kg, ip relative to control; format: functional, organism-based; set-up: dose 100 mg/kg
[5] = tested on: Mus musculus; experiment: Growth inhibition of Swiss Albino mouse bearing EAT cells assessed as reduction in cell numbers at 100 mg/kg, ip relative to control; format: functional, organism-based; set-up: dose 100 mg/kg
[6] = tested on: Mus musculus; experiment: Growth inhibition of Swiss Albino mouse bearing EAT cells assessed as increase in life span at 100 mg/kg, ip; format: functional; set-up: scale not given: the % may be the effect or the level left; details: route intraperitoneal
[7] = organism: Mus musculus; experiment: Antiangiogenic effect in Swiss Albino mouse bearing EAT cells assessed as decrease in microvessel density by CAM assay; format: functional, organism-based
[8] = tested on: Mus musculus; experiment: Growth inhibition of Swiss Albino mouse bearing EAT cells assessed as increase in life span at 100 mg/kg, ip administered on day 11 after tumor inoculation; format: functional; set-up: scale not given: the % may be the effect or the level left; details: route intraperitoneal
[9] = tested on: Mus musculus; experiment: Growth inhibition of Swiss Albino mouse bearing EAT cells assessed as increase in life span at 100 mg/kg, ip administered on day 7 after tumor inoculation; format: functional; set-up: scale not given: the % may be the effect or the level left; details: route intraperitoneal

SMILES	Activity [1]	Activity [2] [%]	Survival [3] [days]	Activity [4]	Activity [5]	Activity [6] [%]	Activity [7]	Activity [8] [%]	Activity [9] [%]
O=C(/C=C/c1ccc(OC2CC2)cc1)/C=C/c1ccc(OC2CC2)cc1	4.2	34.4	24.2	Active	Active	34.4	Active	–	–
Cc1cc(/C=C/C(=O)/C=C/c2ccc(OC3CC3)c(C)c2)ccc1OC1CC1	4.4	–	23.2	Active	Active	28.8	Active	28.8	–
COc1cc(/C=C/C(=O)/C=C/c2ccc(OC3CC3)c(OC)c2)ccc1OC1CC1	3	–	26.8	Active	Active	48.8	Active	–	48.8
COc1cc(/C=C/C(=O)/C=C/c2cc(OC)c(OC3CC3)c(OC)c2)cc(OC)c1OC1CC1	2.8	–	32	Active	Active	77.7	Active	–	–
